Structures are written as SMILES.

The values below come from US8003649B2 (AstraZeneca AB, priority 2007, dated 2011).

The target of this experiment is T1, Androgen Receptor (AR) (Homo sapiens, UniProt P10275, T878A).
T1 construct: cell based immuno-fluorescence assay using the LNCaP prostate epithelial cell line; endogenous in cells; host or cells: LNCaP clone FGC (ATCC CRL-1740)
T1 sequence (P10275 1-920 T878A): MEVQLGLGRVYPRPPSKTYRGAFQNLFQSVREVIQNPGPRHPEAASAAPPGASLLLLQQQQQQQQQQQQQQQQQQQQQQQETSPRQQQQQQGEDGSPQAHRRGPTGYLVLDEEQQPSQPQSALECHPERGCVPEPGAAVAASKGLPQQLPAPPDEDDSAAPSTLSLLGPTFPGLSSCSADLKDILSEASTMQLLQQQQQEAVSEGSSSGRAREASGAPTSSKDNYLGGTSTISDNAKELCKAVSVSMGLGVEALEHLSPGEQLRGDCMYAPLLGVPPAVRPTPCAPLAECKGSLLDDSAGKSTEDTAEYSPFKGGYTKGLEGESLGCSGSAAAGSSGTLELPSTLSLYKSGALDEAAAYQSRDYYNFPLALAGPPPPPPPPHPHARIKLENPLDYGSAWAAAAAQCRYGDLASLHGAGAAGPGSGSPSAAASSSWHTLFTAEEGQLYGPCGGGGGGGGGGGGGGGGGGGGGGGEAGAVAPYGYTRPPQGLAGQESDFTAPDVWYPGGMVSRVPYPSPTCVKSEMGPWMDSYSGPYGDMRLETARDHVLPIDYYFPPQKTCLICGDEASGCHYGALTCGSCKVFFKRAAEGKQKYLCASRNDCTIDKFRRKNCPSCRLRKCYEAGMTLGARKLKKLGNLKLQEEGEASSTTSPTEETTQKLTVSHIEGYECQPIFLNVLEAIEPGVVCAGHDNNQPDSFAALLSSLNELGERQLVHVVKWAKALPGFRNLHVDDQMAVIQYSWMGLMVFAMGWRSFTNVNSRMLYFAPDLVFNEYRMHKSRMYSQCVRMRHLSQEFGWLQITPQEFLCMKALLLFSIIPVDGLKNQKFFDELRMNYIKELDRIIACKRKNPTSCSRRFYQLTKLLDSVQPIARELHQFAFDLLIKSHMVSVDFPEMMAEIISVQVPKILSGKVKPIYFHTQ
Nature of the experiment: LNCaP Androgen Receptor Down-regulation Cell Assay (immunofluorescence end point). In kind it is cell-based. The settings on record: LNCaP prostate carcinoma cells, compound incubation 20-22 hours, 50% reduction of the AR signal; read-out: Androgen Receptor Down-regulation Assay (a) IC50/μM. In short, it runs like this: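 AR loss reported as IC50 from curve fits of fluorescence dose-response data, with AR immunostained and read by laser-scanning cytometry. Compound exposure was 20-22 h at 37° C in LNCaP cells grown in 5% charcoal-stripped FBS and plated overnight beforehand.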
For the compound `CN(CCO)C(=O)c1cccc(OC2CCN(c3ccc4nnc(C(F)(F)F)n4n3)CC2)c1` [Example 685], the DC50 stood at 5.7 µM. For `O=C(NCCN1CCCC1)c1cccc(OC2CCN(c3ccc4nnc(C(F)(F)F)n4n3)CC2)c1` [Example 686], the DC50 amounted to 4.2 µM. `CN1CCN(C(=O)c2cccc(OC3CCN(c4ccc5nnc(C(F)(F)F)n5n4)CC3)c2)CC1` [Example 687]: the DC50 was 3.8 µM. Then `O=C(c1cccc(OC2CCN(c3ccc4nnc(C(F)(F)F)n4n3)CC2)c1)N1CCNCC1` [Example 688], with 6.6 µM.

`COCCNC(=O)c1cccc(OC2CCN(c3ccc4nnc(C(F)(F)F)n4n3)CC2)c1` [Example 689]: the DC50 turned out to be 4.1 µM. As for `O=C(c1cccc(OC2CCN(c3ccc4nnc(C(F)(F)F)n4n3)CC2)c1)N1CC[C@@H](O)C1` [Example 691], the DC50 was > 28 µM. To `O=C(c1cccc(OC2CCN(c3ccc4nnc(C(F)(F)F)n4n3)CC2)c1)N1CCCC1` [Example 692] belongs 4.2 µM. To `O=C(c1cccc(OC2CCN(c3ccc4nnc(C(F)(F)F)n4n3)CC2)c1)N1CCOCC1` [Example 693] belongs 2.3 µM. To `CNC(=O)c1cccc(OC2CCN(c3ccc4nnc(C(F)(F)F)n4n3)CC2)c1` [Example 694] belongs 3.2 µM; to `CCNC(=O)c1cccc(OC2CCN(c3ccc4nnc(C(F)(F)F)n4n3)CC2)c1` [Example 695], 3.3 µM; to `CN(C)CCNC(=O)c1cccc(OC2CCN(c3ccc4nnc(C(F)(F)F)n4n3)CC2)c1` [Example 696], 4.2 µM. Turning to `O=C(NCCO)c1cccc(OC2CCN(c3ccc4nnc(C(F)(F)F)n4n3)CC2)c1` [Example 697], the DC50 is > 22 µM.

With `O=C(NCCN1CCOCC1)c1cccc(OC2CCN(c3ccc4nnc(C(F)(F)F)n4n3)CC2)c1` [Example 698], the DC50 was found to be 5.6 µM. `COCCN(C)C(=O)c1cccc(OC2CCN(c3ccc4nnc(C(F)(F)F)n4n3)CC2)c1` [Example 699]: the DC50 is 2.1 µM. To `O=C(c1cccc(OC2CCN(c3ccc4nnc(C(F)(F)F)n4n3)CC2)c1)N1CC[C@H](O)C1` [Example 700] belongs 7.1 µM. Then `Cc1cc(CNC(=O)c2cccc(OC3CCN(c4ccc5nnc(C(F)(F)F)n5n4)CC3)c2)no1` [Example 702], with > 12 µM; and `CN1CCC(NC(=O)c2cccc(OC3CCN(c4ccc5nnc(C(F)(F)F)n5n4)CC3)c2)CC1` [Example 703], with 5.5 µM; and `CN1CCN(CCNC(=O)c2cccc(OC3CCN(c4ccc5nnc(C(F)(F)F)n5n4)CC3)c2)CC1` [Example 704], with 4.2 µM. To `O=C(NCCn1cccn1)c1cccc(OC2CCN(c3ccc4nnc(C(F)(F)F)n4n3)CC2)c1` [Example 705] belongs 5.3 µM; to `Cn1ccc(CNC(=O)c2cccc(OC3CCN(c4ccc5nnc(C(F)(F)F)n5n4)CC3)c2)n1` [Example 706], 2.9 µM; to `O=C(NCc1cocn1)c1cccc(OC2CCN(c3ccc4nnc(C(F)(F)F)n4n3)CC2)c1` [Example 707], 7.9 µM. As for `CN1CCN(CC(=O)Nc2ccc(C3CCN(c4ccc5nnc(C(F)(F)F)n5n4)CC3)cc2)CC1` [Example 708, 2-(4-methylpiperazin-1-yl)-N-[4-[1-[3-(trifluoromethyl)[1,2,4]triazolo[4,3-b]pyridazin-6-yl]piperidin-4-yl]phenyl]acetamide], the DC50 was found to be 6.2 µM. Then `O=C(CN1CCCC1)Nc1ccc(C2CCN(c3ccc4nnc(C(F)(F)F)n4n3)CC2)cc1` [Example 709], with 1.7 µM; and `O=C(CN1CCOCC1)Nc1ccc(C2CCN(c3ccc4nnc(C(F)(F)F)n4n3)CC2)cc1` [Example 710], with 2.1 µM; and `CN1CCN(CC(=O)Nc2cccc(C3CCN(c4ccc5nnc(C(F)(F)F)n5n4)CC3)c2)CC1` [Example 711], with 2.5 µM.

`O=C(CN1CCCC1)Nc1cccc(C2CCN(c3ccc4nnc(C(F)(F)F)n4n3)CC2)c1` [Example 712]: the DC50 came to 3 µM. To `O=C(CN1CCOCC1)Nc1cccc(C2CCN(c3ccc4nnc(C(F)(F)F)n4n3)CC2)c1` [Example 713] belongs 0.81 µM; to `FC(F)(F)c1nnc2ccc(N3CCC(Oc4ncc(Cl)cn4)CC3)nn12` [Example 714], > 9.9 µM; to `FC(F)(F)c1nnc2ccc(N3CCC(Oc4cccc(Cl)n4)CC3)nn12` [Example 716], 0.81 µM.

Regarding `FC(F)(F)c1nnc2ccc(N3CCC(Oc4cccnc4Br)CC3)nn12` [Example 717], the DC50 was determined as 2.9 µM. To `FC(F)(F)c1nnc2ccc(N3CCC(Oc4cccnc4)CC3)nn12` [Example 718] belongs 3.6 µM; to `FC(F)(F)c1ccc(OC2CCN(c3ccc4nnc(C(F)(F)F)n4n3)CC2)nc1` [Example 719], 3.5 µM; to `FC(F)(F)c1nnc2ccc(N3CCC(Oc4ccc(Cl)nc4)CC3)nn12` [Example 720], 2.7 µM. As for `FC(F)(F)c1nnc2ccc(N3CCC(Oc4ccc(Br)cn4)CC3)nn12` [Example 721], the DC50 was found to be 2.9 µM.

Turning to `FC(F)(F)c1nnc2ccc(N3CCC(Oc4cncc(Br)c4)CC3)nn12` [Example 722], the DC50 is 4.1 µM.

For `FC(F)(F)c1nnc2ccc(N3CCC(Oc4ncccc4Br)CC3)nn12` [Example 723], the DC50 came out at 0.9 µM. `FC(F)(F)c1nnc2ccc(N3CCC(Oc4ccc(Cl)cc4)CC3)nn12` [Example 724]: the DC50 amounted to 0.69 µM. To `CN(C)CCCOc1ccc(C2CCN(c3ccc4nnc(C(F)(F)F)n4n3)CC2)cc1` [Example 726] belongs 1.4 µM. To `FC(F)(F)c1nnc2ccc(N3CCC(c4ccc(OCCCN5CCNCC5)cc4)CC3)nn12` [Example 728, 6-[4-[4-(3-piperazin-1-ylpropoxy)phenyl]piperidin-1-yl]-3-(trifluoromethyl)[1,2,4]triazolo[4,3-b]pyridazine] belongs 1.5 µM; to `Cc1cc(COc2ccc(C3CCN(c4ccc5nnc(C(F)(F)F)n5n4)CC3)cc2)no1` [Example 729], 0.92 µM. Turning to `CN(C)CCOc1ccc(C2CCN(c3ccc4nnc(C(F)(F)F)n4n3)CC2)cc1` [Example 730], the DC50 is 0.72 µM. To `FC(F)(F)c1nnc2ccc(N3CCC(c4ccc(OCCN5CCOCC5)cc4)CC3)nn12` [Example 731] belongs 1.1 µM; to `CN1CCN(CCCOc2ccc(C3CCN(c4ccc5nnc(C(F)(F)F)n5n4)CC3)cc2)CC1` [Example 732], 1.1 µM.

Consider `FC(F)(F)c1nnc2ccc(N3CCC(c4ccc(OCc5ccon5)cc4)CC3)nn12` [Example 733], for which the DC50 worked out at 0.6 µM. Then `FC(F)(F)c1nnc2ccc(N3CCC(c4ccc(OCc5cnco5)cc4)CC3)nn12` [Example 734], with 2.5 µM. To `CN1CCN(CCOc2ccc(C3CCN(c4ccc5nnc(C(F)(F)F)n5n4)CC3)cc2)CC1` [Example 735] belongs 1.9 µM; to `Cn1nccc1COc1ccc(C2CCN(c3ccc4nnc(C(F)(F)F)n4n3)CC2)cc1` [Example 736], 0.4 µM. To `OCCOc1cccc(C2CCN(c3ccc4nnc(C(F)(F)F)n4n3)CC2)c1` [Example 737, 2-[3-[1-[3-(trifluoromethyl)[1,2,4]triazolo[4,3-b]pyridazin-6-yl]piperidin-4-yl]phenoxy]ethanol] belongs 0.74 µM; to `O=C(c1ccc(C2CCN(c3ccc4nnc(C(F)(F)F)n4n3)CC2)cc1)N1CC[C@@H](O)C1` [Example 738], 3.3 µM.
